Results: the NIST ThermoML archive (doi:10.1021/je600519p)

Assay: xn = mol fraction of the nth substance listed
Details: 101 kPa, Liquid

CC(=O)c1ccccc1 [acetophenone] + CCCCCCO
Details | mass density, 293.15 K [kg/m3] | mass density, 303.15 K [kg/m3] | speed of sound, 293.15 K [m/s] | speed of sound, 303.15 K [m/s] | viscosity, 293.15 K [mPa·s] | viscosity, 303.15 K [mPa·s]
x1 = 0.0498 | 828.69 | 821.41 | 1316 | 1285 | 4.831 | 3.559
x1 = 0.1009 | 838.84 | 831.48 | 1323 | 1293 | 4.397 | 3.262
x1 = 0.1517 | 848.99 | 841.54 | 1331 | 1302 | 3.997 | 2.989
x1 = 0.2106 | 860.83 | 853.28 | 1341 | 1313 | 3.605 | 2.725
x1 = 0.2474 | 868.27 | 860.66 | 1348 | 1320 | 3.31 | 2.511
x1 = 0.3028 | 879.53 | 871.83 | 1358 | 1332 | 2.986 | 2.306
x1 = 0.3426 | 887.67 | 879.89 | 1365 | 1340 | 2.744 | 2.148
x1 = 0.3978 | 899.01 | 891.14 | 1375 | 1351 | 2.491 | 1.961
x1 = 0.4512 | 910.05 | 902.09 | 1385 | 1362 | 2.266 | 1.805
x1 = 0.4985 | 919.88 | 911.85 | 1394 | 1371 | 2.085 | 1.692
x1 = 0.5526 | 931.2 | 923.08 | 1404 | 1382 | 1.93 | 1.583
x1 = 0.6071 | 942.67 | 934.47 | 1415 | 1393 | 1.798 | 1.488
x1 = 0.6491 | 951.55 | 943.29 | 1424 | 1402 | 1.744 | 1.442
x1 = 0.7101 | 964.53 | 956.19 | 1437 | 1414 | 1.65 | 1.431
x1 = 0.7485 | 972.75 | 964.35 | 1445 | 1421 | 1.664 | 1.426
x1 = 0.8019 | 984.23 | 975.77 | 1457 | 1430 | 1.673 | 1.455
x1 = 0.8521 | 995.09 | 986.56 | 1467 | 1439 | 1.691 | 1.465
x1 = 0.9045 | 1006.5 | 997.88 | 1476 | 1445 | 1.71 | 1.48
x1 = 0.9554 | 1017.63 | 1008.95 | 1485 | 1451 | 1.727 | 1.496
